Assay results: EP4417602A1, “SUBSTITUTED PYRAZOLE CARBOXAMIDES, SALTS THEREOF AND THEIR USE AS HERBICIDALLY ACTIVE SUBSTANCES” (Bayer AG, priority 2023, dated 2024)

What was measured:
[1] = system: ECHCG; experiment: A. Herbicidal pre-emergence action on harmful plants (Tables A); format: in vivo, Echinochloa crus-galli; conditions: visual grading after ca. 3 weeks vs untreated controls, 100% = plants have died off, 0% = as control plants
Method in brief: (§1)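 Greenhouse pre-emergence test: compound applied to the soil surface at 1280 g/ha or below, and herbicidal effect rated visually at ca. 3 weeks on a 0–100% scale against untreated plants.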

[2] = system: SETVI; experiment: as above; format: in vivo, Setaria viridis; conditions: visual grading after ca. 3 weeks vs untreated controls, 100% = plants have died off, 0% = as control plants
Method in brief: as §1

[3] = system: AMARE; experiment: as above; format: in vivo, Amaranthus retroflexus
Method in brief: as §1

[4] = system: MATIN; experiment: B. Herbicidal post-emergence action on harmful plants (Tables B); format: in vivo, Matricaria inodora
Method in brief: (§2)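 Activity was scored visually as % damage (100% = dead, 0% = like untreated) about 3 weeks after treatment. Plants at the one-leaf stage, 2-3 weeks old, were sprayed with WP/EC formulations plus 0.5% additive (600 L/ha water, up to 1280 g/ha). Plants were grown in sandy loam in a greenhouse.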

[5] = system: ECHCG; experiment: as above; format: in vivo, Echinochloa crus-galli
Method in brief: as §2

[6] = system: DIGSA; experiment: A. Herbicidal pre-emergence action on harmful plants (Tables A); format: in vivo, Digitaria sanguinalis
Method in brief: as §1

[7] = system: ALOMY; experiment: as above; format: in vivo, Alopecurus myosuroides
Method in brief: as §1

[8] = system: POAAN; experiment: B. Herbicidal post-emergence action on harmful plants (Tables B); format: in vivo, Poa annua
Method in brief: as §2

[9] = system: DIGSA; experiment: as above; format: in vivo, Digitaria sanguinalis; conditions: application rate 1280 g/ha; Table B12a
Method in brief: as §2

[10] = system: STEME; experiment: A. Herbicidal pre-emergence action on harmful plants (Tables A); format: in vivo, Stellaria media; conditions: visual grading after ca. 3 weeks vs untreated controls, 100% = plants have died off, 0% = as control plants
Method in brief: as §1

[11] = system: VERPE; experiment: B. Herbicidal post-emergence action on harmful plants (Tables B); format: in vivo, Veronica persica
Method in brief: as §2

[12] = system: MATIN; experiment: A. Herbicidal pre-emergence action on harmful plants (Tables A); format: in vivo, Matricaria inodora; conditions: visual grading after ca. 3 weeks vs untreated controls, 100% = plants have died off, 0% = as control plants
Method in brief: as §1

[13] = system: POAAN; experiment: as above; format: in vivo, Poa annua
Method in brief: as §1

[14] = system: LOLRI; experiment: as above; format: in vivo, Lolium rigidum; conditions: visual grading after ca. 3 weeks vs untreated controls, 100% = plants have died off, 0% = as control plants
Method in brief: as §1

[15] = system: ABUTH; experiment: B. Herbicidal post-emergence action on harmful plants (Tables B); format: in vivo, Abutilon theophrasti
Method in brief: as §2

[16] = system: VERPE; experiment: A. Herbicidal pre-emergence action on harmful plants (Tables A); format: in vivo, Veronica persica; conditions: application rate 1280 g/ha; Table A11
Description: Seeds of mono- and dicotyledonous weed plants were sown in plastic pots (double sowings with one species of mono- and one species of dicotyledonous weed plants per pot), in sandy loam, and covered with soil. The compounds according to the invention, formulated in the form of wettable powders (WP) or as emulsifiable concentrates (EC), were applied to the surface of the covering soil as aqueous suspension or emulsion, with the addition of 0.5% of an additive, at an application rate of 6001 of water per hectare (converted). Following treatment, the pots were placed in a greenhouse and kept under optimum growth conditions for the test plants. The visual grading of the damage to the test plants was carried out after ca. 3 weeks in comparison to untreated controls (herbicidal effect in percent (%): 100% effect = plants have died off, 0% effect = as control plants). Tables A1 to A12, below, show the effects of selected compounds of the general formula (I) according to table 1 on various harmful plants and an application rate corresponding to 1280 g/ha or below obtained by the experimental procedure mentioned above. Table A1: pre-emergence activity at 1280g/ha against ABUTH in %

[17] = system: SETVI; experiment: B. Herbicidal post-emergence action on harmful plants (Tables B); format: in vivo, Setaria viridis; conditions: application rate 1280 g/ha; Table B5
Description: (§3) Seeds of mono- and dicotyledonous weed plants were placed in plastic pots in sandy loam soil (doubly sown with in each case one species of mono- or dicotyledonous weed plants per pot), covered with soil and cultivated in a greenhouse under controlled growth conditions. 2 to 3 weeks after sowing, the test plants were treated at the one-leaf stage. The compounds of the invention, formulated in the form of wettable powders (WP) or as emulsion concentrates (EC), were applied onto the green parts of the plants as aqueous suspension or emulsion with addition of 0.5% additive at a water application rate of 600 liters per hectare (converted). After the test plants had been kept in the greenhouse under optimum growth conditions for about 3 weeks, the activity of the preparations was rated visually in comparison to untreated controls. For example, 100% activity = the plants have died, 0% activity = like control plants. Tables B1 to B12, below, show the effects of selected compounds of the general formula (I) according to table 1 on various harmful plants and an application rate corresponding to 1280 g/ha or below obtained by the experimental procedure mentioned above. Table B1a: post-emergence activity at 1280g/ha against ABUTH in %

[18] = system: STEME; experiment: as above; format: in vivo, Stellaria media; conditions: application rate 1280 g/ha; Table B6
Description: as §3

[19] = application rate 1280 g/ha, visual grading after ca. 3 weeks vs untreated controls, 100% = plants have died off, 0% = as control plants
[20] = application rate 320 g/ha, Table B4b
[21] = application rate 1280 g/ha, Table B4a
[22] = application rate 1280 g/ha, Table B2a
[23] = application rate 320 g/ha, Table A12b
[24] = application rate 1280 g/ha, Table A12a
[25] = application rate 320 g/ha, Table A9b
[26] = application rate 1280 g/ha, Table A9a
[27] = application rate 320 g/ha, Table B7b
[28] = application rate 1280 g/ha, Table B7a
[29] = application rate 1280 g/ha, Table B11a
[30] = application rate 80 g/ha, Table A7c
[31] = application rate 320 g/ha, Table A7b
[32] = application rate 1280 g/ha, Table B1a

Compound	pre-emergence activity against ECHCG ([1]; application rate 80 g/ha)	pre-emergence activity against ECHCG ([1]; application rate 320 g/ha)	pre-emergence activity against ECHCG ([1]; application rate 1280 g/ha)	pre-emergence activity against SETVI ([2]; application rate 320 g/ha)	pre-emergence activity against SETVI ([2]; application rate 1280 g/ha)	pre-emergence activity against AMARE [3, 19]	post-emergence activity against MATIN [4, 20]	post-emergence activity against MATIN [4, 21]	post-emergence activity against ECHCG [5, 22]	pre-emergence activity against DIGSA [6, 23]	pre-emergence activity against DIGSA [6, 24]	pre-emergence activity against ALOMY [7, 25]	pre-emergence activity against ALOMY [7, 26]	post-emergence activity against POAAN [8, 27]	post-emergence activity against POAAN [8, 28]	post-emergence activity against DIGSA [9]	pre-emergence activity against STEME ([10]; application rate 80 g/ha)	pre-emergence activity against STEME ([10]; application rate 320 g/ha)	pre-emergence activity against STEME ([10]; application rate 1280 g/ha)	post-emergence activity against VERPE [11, 29]	other results
COCc1nn(C)cc1C(=O)N1CCCC1Cc1cccc(F)c1F (racemic) [Example I-077]	90%	90%	100%	90%	90%	90%	90%	90%	90%	100%	100%	90%	90%	90%	90%	90%	90%	90%	90%	90%	pre-emergence activity against MATIN ([12]; application rate 320 g/ha): 90%; pre-emergence activity against MATIN ([12]; application rate 1280 g/ha): 90%; pre-emergence activity against POAAN [13, 30]: 100%; pre-emergence activity against POAAN [13, 31]: 100%; pre-emergence activity against POAAN [13, 19]: 100%; pre-emergence activity against LOLRI ([14]; application rate 320 g/ha): 90%; pre-emergence activity against LOLRI ([14]; application rate 1280 g/ha): 100%; post-emergence activity against ABUTH [15, 32]: 90%; pre-emergence activity against VERPE [16]: 90%
COCc1nn(C)cc1C(=O)N1CCCC1Cc1c(F)cccc1F (single isomer, unassigned) [Example I-082]	90%	90%	100%	100%	100%	90%	90%	90%	90%	100%	100%	90%	90%	90%	100%	90%	90%	90%	90%	90%	pre-emergence activity against SETVI ([2]; application rate 80 g/ha): 90%; pre-emergence activity against AMARE ([3]; application rate 320 g/ha, Table A8b): 90%; post-emergence activity against SETVI [17]: 90%; post-emergence activity against ECHCG ([5]; application rate 320 g/ha, Table B2b): 90%; pre-emergence activity against DIGSA ([6]; application rate 80 g/ha, Table A12c): 100%; post-emergence activity against POAAN ([8]; application rate 80 g/ha, Table B7c): 90%; post-emergence activity against VERPE ([11]; application rate 320 g/ha, Table B11b): 90%; pre-emergence activity against MATIN ([12]; application rate 80 g/ha): 90%; pre-emergence activity against MATIN ([12]; application rate 320 g/ha): 90%; pre-emergence activity against MATIN ([12]; application rate 1280 g/ha): 90%; pre-emergence activity against POAAN [13, 30]: 100%; pre-emergence activity against POAAN [13, 31]: 100%; pre-emergence activity against POAAN [13, 19]: 100%; post-emergence activity against STEME [18]: 90%; pre-emergence activity against LOLRI ([14]; application rate 80 g/ha): 90%; pre-emergence activity against LOLRI ([14]; application rate 320 g/ha): 100%; pre-emergence activity against LOLRI ([14]; application rate 1280 g/ha): 100%; post-emergence activity against ABUTH ([15]; application rate 320 g/ha, treated at the one-leaf stage, rated visually after about 3 weeks vs untreated controls, 100% = the plants have died, 0% = like control plants): 90%; post-emergence activity against ABUTH [15, 32]: 90%; pre-emergence activity against VERPE [16]: 90%
